Experimental data from ChEMBL document CHEMBL3045956, “Bioisosteric synthesis of nitrogen containing derivatives of salicyl alcohol, their in vivo pharmacological studies with molecular modeling” (2013).
Activity calls are given as the source filed them. The calls are words filed in the database; no cut-off is given here.

Experiments:
[1] = test system: Mus musculus; assay: Antinociceptive activity in Balb/c albino Mus musculus (mouse) assessed as latency time on hot plate at 15 to 45 mg/kg up to 60 min by hot-plate method relative to control; type: functional, organism-based
[2] = test system: Mus musculus; assay: Analgesic activity in Balb/c albino Mus musculus (mouse) assessed as protection against acetic acid-induced writhing at 15 to 45 mg/kg measured up to 20 min relative to control; type: functional; details: dose mg/kg 15-45
[3] = test system: Mus musculus; assay: Antipyretic activity in Balb/c albino Mus musculus (mouse) assessed as Brewer's yeast-induced rectal temperature at 50 to 150 mg/kg, ip measured after 3 hr (reference value: 38.7 degC); type: functional; details: dose mg/kg 50-150; route intraperitoneal
[4] = test system: Mus musculus; assay: Antipyretic activity in Balb/c albino Mus musculus (mouse) assessed as decrease in Brewer's yeast-induced rectal temperature at 50 to 150 mg/kg, ip measured up to 1.5 hr relative to control; type: functional, organism-based
[5] = test system: Mus musculus; assay: Anti-inflammatory activity in Balb/c albino Mus musculus (mouse) assessed as inhibition of carrageenan-induced paw edema at 50 to 150 mg/kg at 5 hr relative to control; type: functional, organism-based
[6] = test system: Mus musculus; assay: Anti-inflammatory activity in Balb/c albino Mus musculus (mouse) assessed as inhibition of carrageenan-induced paw edema at 50 to 150 mg/kg at 1 hr relative to control; type: functional, organism-based
[7] = test system: Mus musculus; assay: Anti-inflammatory activity in Balb/c albino Mus musculus (mouse) assessed as inhibition of carrageenan-induced paw edema at 50 to 150 mg/kg up to 5 hr relative to control; type: functional, organism-based

| SMILES | Activity [1] | Activity [2] [%] | T [3] [°C] | inhibition [4] | inhibition [5] | inhibition [6] | inhibition [7] |
| --- | --- | --- | --- | --- | --- | --- | --- |
| Cl.Oc1ccccc1CN1CCCCC1 | inactive | 67.62 | 37.7 | Active | Active | Active |  |
| CC(=O)Oc1ccccc1C(=O)O [ASPIRIN] |  | 78.38 |  |  |  |  |  |
| Cl.NC(=O)C1CCN(Cc2ccccc2O)CC1 | inactive | 67.34 | 37.2 | Active | Active | Active | Active |
